The nature of data set [1]: Live-dead viability of RAW 264.7 cells on MDP hydrogels. The data set is classed as cell-based, mouse. As to conditions: mouse, RAW 264.7 cells cultured on peptide hydrogel (2-D culture); RAW macrophages on 1 wt. % hydrogel, after three days; read-out: cell survival. The protocol:
(§1) Cell culture. For in vitro experiments, mouse RAW 264.7 cells (ATCC TIB-71) were grown in DMEM media supplemented with 10% Heat-Inactivated Fetal Bovine Serum (HI-FBS), L-glutamine, sodium pyruvate, and 1% penicillin-streptomycin. Cells were cultured at 37° C. with 5% CO2 and subcultured using scraping.
(§2) For 2-D culture live-dead viability studies, peptide hydrogels were pipetted into 0.4 cm^2 wells of Lab-Tek 16 well glass chamber slides (Thermo Fischer, Rochester, NY). Gels were pipetted to produce 70 μL pucks with a thickness of 1.75 mm. The gels were carefully pipetted into the bottom of each well and tapped before shear recovery to create flat gel profiles. After pipetting, the samples were allowed to shear recover for 5-10 min before adding 200 μL cell media and 10,000 RAW 264.7 cells. For each experiment time point (days 1 and 3) separate slides with duplicate gels were created. The cell media was changed every 2 days, taking care to not disturb or dislodge the gel material.
(§3) At each desired time point the following procedure was used to stain the cells for live-dead analysis. Live-dead staining solution was prepared in DPBS (Thermo Fisher Scientific, Rockford, IL) with 2 μM Calcein AM (Life Technologies), 4 μM Ethidium homodimer (Life Technologies), and 5 μg/mL Hoechst 33342 (BD Biosciences, San Jose, CA). Cell media was removed from the top of the hydrogel samples, which were then washed with PBS. Samples were then stained with 100 μL of prepared solution by incubating at 37° C. with 5% CO2 for 60 min while protected from light. After staining, the gels were removed from the glass chamber slides and placed in PBS before immediately imaging by confocal. Gels were analyzed by z-stack imaging using a Nikon A1 Confocal Microscope with a 40× water objective (405 nm blue channel laser, 488 nm green channel laser, 561 nm red channel laser). Image processing was done using NIS Elements, and Imaris Cell Counting software was used to quantify live-dead percentages.

The subject of the next data set is RAW 264.7 cells. The data set is described as above. The data set is classed as cell-based, mouse. The note with it: RAW macrophages on 1 wt. % hydrogel, one to three days. Here is the method:
as §1, §2, §3

The nature of data set [2]: Subcutaneous hydrogel implants, histology (persistence, degradation, host response). The data set is classed as in vivo, mice. As to conditions: 3-21 days. Here is the method: Subcutaneous experiments and histology. C57BL/6J female mice were purchased from The Jackson Laboratory at age 8-12 weeks for subcutaneous characterization experiments. Mice were housed under specific pathogen-free conditions in standard temperature and lighting conditions with free access to food and water, and experiments were conducted with approval of the Institutional Animal Care and Use Committee (IACUC) at Rice University and according to NIH guidelines. Mice were injected with 100 μL MDP hydrogels in each of four separate sites in the subcutaneous space of the dorsal flank after the skin was shaved and sterilized with alcohol. At days 3, 7, 14, and 21 the mice were euthanized and the dorsal skin around the entire implant was removed, fixed overnight in 10% neutral buffered formalin, processed and paraffin embedded, and finally sectioned at […] thickness for staining using standard Masson's trichrome or hematoxylin and eosin (H&E) procedures, as well as immunohistochemical analyses (e.g., anti-nitrotyrosine IHC, or α-SMA blood vessel analysis).
Evaluation of material biocompatibility, degradation, and immune response profile in vivo was performed by histological analysis of hydrogel implants injected subcutaneously in healthy mice. […]

The subject of a further data set is MOC1 tumors. The data set can be described thus: MOC orthotopic murine model of oral cancer (Example 9). As to conditions: established 4-5 mm MOC1 tumors, single 30 μl intratumoral injection.

SMILES strings stand for the structures. *1 amine or outer side, *2 acyl side, *3 side chain or, on linkers, in order; H or OH if unused. Where a SMILES comes first, the peptide text is derived from it. [ ]: non-standard residue; d: D form. X1 = CC(=N)NCCCC[C@H](N[*:1])C(=O)[*:2]

Method for MOC1 tumors: MOC orthotopic murine model of oral cancer. MOC1 tumors were established by injecting 2×10^6 cells (70%:30% cells: Matrigel®Matrix) into the maxillary vestibule of the left oral cavity in C57BL/6J mice. […] Tumor growth was monitored by tumor size measurements (in diameter) taken at least two times per week using digital calipers to measure the longest dimension (single dimension). Data was then analyzed for Kaplan-Meier survival and tumor growth curves. […] Excessive tumor burden, defined as tumor diameter reaching 12 mm, tumor ulceration, or a weight loss of greater than 20% were factors that were considered for all endpoints in tumor growth and survival data.
Statistical methods. Statistical analyses were performed using Prism 7.0 (GraphPad, San Diego, CA). Statistical analyses for Kaplan-Meier survival curves were performed using the Log-rank/Mantel-Cox test. Statistical significance for tumor growth curves was determined by a two-way ANOVA test followed by selected comparison using Tukey's multiple comparison tests with multiple comparison correction. All p values were two-sided and p values less than 0.05 were considered significant.

Consider `CC(=N)NCCCC[C@H](NC(=O)[C@H](CCCCNC(C)=N)NC(=O)[C@H](CC(C)C)NC(=O)[C@H](CO)NC(=O)[C@H](CC(C)C)NC(=O)[C@H](CO)NC(=O)[C@H](CC(C)C)NC(=O)[C@H](CO)NC(=O)[C@H](CC(C)C)NC(=O)[C@H](CO)NC(=O)[C@H](CC(C)C)NC(=O)[C@H](CO)NC(=O)[C@H](CC(C)C)NC(=O)[C@H](CO)NC(=O)[C@H](CCCCNC(C)=N)NC(=O)[C@H](CCCCNC(C)=N)NC(C)=O)C(N)=O` [L-NIL-MDP] (Ac-[X1][X1]SLSLSLSLSLSL[X1][X1]-NH2), for which, in data set [1], the viability at 72 h, 1 wt. % is approximately 95%. For the same molecule, in the data set on RAW 264.7 cells, the “cell attachment, survival and proliferation (in words)” value was “highest degrees of cell attachment and proliferation”. Moreover, the “inflammatory reaction after injection (in words)” value in data set [2] is given as “does not cause a chronic inflammatory reaction”. This molecule showed a median survival in the data set with MOC1 tumors of 44 days.

Source of the values: patent publication US12251449B2, “Synthetic multidomain peptide biomaterials that inhibit inducible nitric oxide synthase” (William Marsh Rice University, priority 2019, dated 2025).
